Structures are written as SMILES. Structures can show the parent of a compound that is named as a salt.

In the test the target is T1, human NTCP (Homo sapiens, UniProt Q14973).
T1 sequence (Q14973 1-349): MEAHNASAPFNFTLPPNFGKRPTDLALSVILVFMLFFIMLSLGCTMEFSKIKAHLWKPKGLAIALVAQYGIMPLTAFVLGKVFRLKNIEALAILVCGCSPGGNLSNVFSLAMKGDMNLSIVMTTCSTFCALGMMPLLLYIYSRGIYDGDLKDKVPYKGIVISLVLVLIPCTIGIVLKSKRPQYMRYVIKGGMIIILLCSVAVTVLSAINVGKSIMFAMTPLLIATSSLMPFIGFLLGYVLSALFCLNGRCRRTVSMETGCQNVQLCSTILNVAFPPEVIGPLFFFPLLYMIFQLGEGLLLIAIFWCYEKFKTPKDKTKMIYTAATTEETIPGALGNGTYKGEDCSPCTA
As to the kind of experiment: Screening taurocholate uptake assay (96-well, [14C]taurocholate, 10 µM drug). Particulars: for B-score functional assay: screening taurocholate uptake, 10 µM drug.

[1] abbreviates: combined ranking of functional and binding screening assays.
Where [2] appears, read: ranking over the functional and the binding screening assay.

In turn, `CCN(CCCCOC(=O)c1ccc(OC)c(OC)c1)C(C)Cc1ccc(OC)cc1` (centres unmarked) [Mebeverine hydrochloride] returned a B-score functional assay of -0.512. In addition, the Ranking score under setting [1] is listed as 474.181.

In turn, `CCOC(=O)NNc1nncc2ccccc12` [Todralazine hydrochloride] returned a B-score functional assay of -1.372. Moreover, under setting [2], the Ranking score is 269.251.

For `CC(C)(C)NC[C@@H](O)COc1cccc2c1CCCC2=O.Cl` [(+) -Levobunolol hydrochloride], the B-score functional assay is given as -1.002. For the same compound, the Ranking score under setting [1] amounted to 464.377.

Take `COc1c(N2CCNC(C)C2)c(F)cc2c(=O)c(C(=O)O)cn(C3CC3)c12` (centres unmarked) [Gatifloxacin]: the B-score functional assay is -0.592. Under setting [1], the Ranking score is listed as 627.155.

Compound `C[C@]12CCC(=O)C=C1CC[C@@H]1[C@@H]2[C@@H](O)C[C@@]2(C)[C@H]1CC[C@]2(O)C(=O)CO` [Hydrocortisone base] displayed a B-score functional assay of 0.004. Also, the Ranking score under setting [1] is listed as 557.864.

With `COc1ccc(/C=C/C(=O)Nc2ccccc2C(=O)O)cc1OC` [Tranilast], the B-score functional assay is recorded as -4.178. Also, the Ranking score under setting [2] is 106.883.

The compound `C[C@]12CC[C@H]3C(=CCc4cc(O)ccc43)[C@@H]1CCC2=O` [Equilin] registered a B-score functional assay of -2.643. The compound further had a Ranking score under setting [2] of 264.641.

`CCCCCCC[N+](CC)(CC)CCCCc1ccc(Cl)cc1.Cc1ccc(S(=O)(=O)[O-])cc1` [Clofilium tosylate] gave a B-score functional assay of -2.506. Besides, the Ranking score under setting [2] came to 143.363.

The compound `O=c1[nH]c(=O)n(C2CCCO2)cc1F` (centres unmarked) [Tegafur] registered a B-score functional assay of -0.939. The Ranking score under setting [1] is listed as 518.446.

In the case of `C=C(NC(=O)C(=C)NC(=O)c1csc(C2=N[C@@H]3c4csc(n4)[C@H]4NC(=O)c5csc(n5)[C@H]([C@](C)(O)[C@@H](C)O)NC(=O)[C@H]5CSC(=N5)/C(=C/C)NC(=O)[C@H]([C@@H](C)O)NC(=O)c5csc(n5)[C@]3(CC2)NC(=O)[C@H](C)NC(=O)C(=C)NC(=O)[C@H](C)NC(=O)[C@H]([C@@H](C)CC)N[C@@H]2C=Cc3c([C@H](C)O)cc(nc3[C@H]2O)C(=O)O[C@@H]4C)n1)C(N)=O` [Thiostrepton], the B-score functional assay is -0.068. Under setting [2], this compound had a Ranking score of 23.8747.

Regarding `COC(=O)C1=C(C)NC(C)=C(C(=O)OC(C)C)C1c1cccc2nonc12` (centres unmarked) [Isradipine], the B-score functional assay is reported as -0.707. Also, the Ranking score under setting [2] amounted to 185.591.

Regarding `O=C(CCCN1CCC2(CC1)C(=O)NCN2c1ccccc1)c1ccc(F)cc1` [Spiperone], the B-score functional assay is -0.689. For the same compound, under setting [1], the Ranking score is 571.731.

As to `C[N+]1(C)CCC(=C(c2ccccc2)c2ccccc2)CC1` [Diphemanil methylsulfate], under setting [1], the Ranking score is 1220.85. The B-score functional assay (B-score) turned out to be 2.82.

`CN(C)CCN(Cc1ccccc1)c1ccccn1` [Tripelennamine hydrochloride] gave a B-score functional assay of -0.493. Besides, the Ranking score under setting [1] was determined as 512.348.

`OC(c1ccccc1)(c1ccccc1)C1CCNCC1` [Azacyclonol] yielded a B-score functional assay of -0.041. For the same compound, under setting [1], the Ranking score came out at 525.026.

`CN(CCOc1ccc(NS(C)(=O)=O)cc1)CCc1ccc(NS(C)(=O)=O)cc1` [Dofetilide]: the B-score functional assay was -0.213. Besides, the Ranking score under setting [1] worked out at 626.449.

On to `CC(=O)O[C@@]12CO[C@@H]1C[C@H](O)[C@@]1(C)C(=O)[C@H](O)C3=C(C)[C@@H](OC(=O)[C@H](O)[C@@H](NC(=O)OC(C)(C)C)c4ccccc4)C[C@@](O)([C@@H](OC(=O)c4ccccc4)[C@H]21)C3(C)C` [Docetaxel], for which the B-score functional assay is listed as -5.513. Under setting [2], this compound showed a Ranking score of 106.066.

`CC(C)(Oc1ccc(C2CC2(Cl)Cl)cc1)C(=O)O` (centres unmarked) [Ciprofibrate] showed a B-score functional assay of 0.025. Further, the Ranking score under setting [1] worked out at 539.316.

For `NC(N)=NCc1cccc(I)c1.NC(N)=NCc1cccc(I)c1.O=S(=O)(O)O` [Iobenguane sulfate], the Ranking score under setting [1] is on record as 1171.02. The B-score functional assay (B-score) turned out to be 1.016.

Take `CC[N+](CC)(CC)CCC(O)(c1ccccc1)C1CCCCC1.[Cl-]` (centres unmarked) [Tridihexethyl chloride]: the B-score functional assay came to 0.93. Further, under setting [1], the Ranking score is 474.251.

In turn, `CC(C)(C(=O)O)c1ccc(C(O)CCCN2CCC(C(O)(c3ccccc3)c3ccccc3)CC2)cc1` (centres unmarked) [Fexofenadine HCl] displayed a B-score functional assay of -2.318. Also, the Ranking score under setting [2] is given as 234.288.

As for `COC1=CC(=O)C[C@@H](C)[C@]12Oc1c(Cl)c(OC)cc(OC)c1C2=O` [Griseofulvin], the B-score functional assay is given as -0.69. Also, under setting [1], the Ranking score was found to be 477.468.

`COc1c(O[C@@H]2O[C@H](CO)[C@@H](O)[C@H](O)[C@H]2O)cc2c(c1OC)-c1ccc(SC)c(=O)cc1[C@@H](NC(C)=O)CC2` [Thiocolchicoside] showed a B-score functional assay of -3.578. The compound also gave a Ranking score under setting [2] of 64.2729.

As for `C/C(=C(\CCOP(=O)(O)O)SC(=O)c1ccccc1)N(C=O)Cc1cnc(C)nc1N` [Benfotiamine], the B-score functional assay is -0.56. Also, under setting [1], the Ranking score came to 532.072.

`OCCN1C[C@H](O)[C@@H](O)[C@H](O)[C@H]1CO` [Miglitol] came in with a B-score functional assay of -1.145. Also, the Ranking score under setting [1] is on record as 510.427.

For `N=C(N)c1ccc(OCCCCCOc2ccc(C(=N)N)cc2)cc1` [Pentamidine isethionate], the B-score functional assay is -0.233. Also, the Ranking score under setting [1] is listed as 489.028.

For `C=CCc1ccccc1OCC(O)CNC(C)C` (centres unmarked) [Alprenolol hydrochloride], under setting [1], the Ranking score was 1166.46. The B-score functional assay (B-score) came to 2.549.

In the case of `C[C@]12CC[C@@H]3c4ccc(OC(=O)N(CCCl)CCCl)cc4CC[C@H]3[C@@H]1CC[C@@H]2O` [Estramustine], the B-score functional assay was -1.527. Under setting [2], this compound displayed a Ranking score of 134.744.

In turn, `Oc1ccc(C2CNCCc3c2cc(O)c(O)c3Cl)cc1` (centres unmarked) [Fenoldopam] gave a B-score functional assay of 0.056. Besides, the Ranking score under setting [2] was 222.621.

Regarding `CC(C)c1c(C(=O)Nc2ccccc2)c(-c2ccccc2)c(-c2ccc(F)cc2)n1CC[C@@H](O)C[C@@H](O)CC(=O)O` [Atorvastatin], the B-score functional assay was -2.669. In addition, under setting [2], the Ranking score turned out to be 231.469.

Regarding `CN1CCN(C(c2ccccc2)c2ccc(Cl)cc2)CC1` (centres unmarked) [Chlorcyclizine hydrochloride], the Ranking score under setting [1] was 1232.56. The B-score functional assay (B-score) worked out at 4.014.

`CN(C)[C@@H]1C(O)=C(C(=O)NCNCCCC[C@H](N)C(=O)O)C(=O)[C@@]2(O)C(O)=C3C(=O)c4c(O)cccc4[C@@](C)(O)[C@H]3C[C@@H]12` [Lymecycline] gave a B-score functional assay of 0.716. The Ranking score under setting [1] amounted to 591.633.

Take `NS(=O)(=O)c1cc(C(=O)O)cc(N2CCCC2)c1Oc1ccccc1` [Piretanide]: the B-score functional assay is recorded as -0.384. Moreover, under setting [1], the Ranking score amounted to 548.109.

`Cn1cnc2c1c(=O)[nH]c(=O)n2C` [Theobromine] gave a B-score functional assay of -0.75. For the same compound, the Ranking score under setting [1] is 527.693.

Source of the values: PMC5681660, “Reduced hepatitis B and D viral entry using clinically applied drugs as novel inhibitors of the bile acid transporter NTCP” (Scientific Reports, 2017).
